Laboratory results: PubChem BioAssay AID789 (SRMLSC, 2007)
Active and inactive are the calls of the source. How the calls were made is not given here.

What was measured:
[1] = test system: S. cerevisiae apl2Δ mutant growth inhibition; test: growth inhibition of apl2Δ yeast, dose response, selectivity assay for post-Golgi transport modulator project, S. cerevisiae, secondary screen, background strain comparison (AID 789)
[2] = as above; conditions: for IC50: S. cerevisiae background (wild-type parent) strain growth inhibition; for growth inhibition: S. cerevisiae apl2Δ mutant growth inhibition, at 25 µM (top of the series)

Structure (SMILES) | IC50 [1] | IC50 [2] [µM] | growth inhibition [2]
Cc1ccn2cc(-c3nonc3C)cc2c1 | > 10 µM (inactive) | > 10 | –
CC1CCC(C(C)C)C(OCC(O)CN2CCN(Cc3ccccc3)CC2)C1 (stereo not drawn) | 19.3 µM | – | –
O=C(Nc1cccc(Cl)c1)N1CCN(C/C=C/c2ccccc2)CC1 | > 10 µM (inactive) | > 10 | –
CCN(CC)C(=O)C1CCN(Cc2ccc(Br)cc2)CC1 | > 10 µM (inactive) | > 10 | –
O=C(Nc1nnc(-c2cccs2)o1)c1cccc(C(F)(F)F)c1 | > 10 µM (inactive) | – | –
O=[N+]([O-])c1ccc(N2CCN(S(=O)(=O)c3ccc(Cl)cc3)CC2)cc1NCc1cccnc1 | > 10 µM (inactive) | > 10 | –
CCCCCCCCNc1ncnc2ccccc12 | – | 14.8 | –
c1coc(CNc2nc(N3CCCCC3)nc3ccccc23)c1 | > 10 µM (inactive) | > 10 | –
Cc1cc(=O)oc2c(CN3CCCCC3)c(O)c(Cl)cc12 | > 10 µM (inactive) | > 10 | –
Cc1nnc(-c2cccc(Br)c2)c2cn(-c3ccccc3)nc12 | > 10 µM (inactive) | > 10 | –
O=C(NCCc1ccccc1)C1CCN(S(=O)(=O)N2CCCC2)CC1 | > 10 µM (inactive) | > 10 | –
Cc1ccc(C2N(c3ccc(Cl)c(Cl)c3)C(=O)C3CCCN32)o1 (stereo not drawn) | > 10 µM (inactive) | > 10 | –
O=C(CCC(=O)OCC(=O)c1ccc(F)cc1)NC1CCCCC1 | > 10 µM (inactive) | > 10 | –
COc1ccc2oc(=O)c(-c3nnc(NCc4ccco4)s3)cc2c1 | > 10 µM (inactive) | > 10 | –
Cc1cc(OCC(F)(F)C(F)(F)C(F)(F)C(F)(F)C(F)(F)C(F)F)nc(N)n1 | > 10 µM (inactive) | > 10 | –
CCCCCOc1ccc(Cl)cc1CN1CCOCC1 | > 10 µM (inactive) | > 10 | –
CCc1n[nH]c2c1/C(=N\O)CC(C)(C)C2 | > 10 µM (inactive) | > 10 | –
CCc1ccc(N(C(=O)c2csnn2)C(C(=O)NC(C)(C)C)c2ccncc2)cc1 (stereo not drawn) | > 10 µM (inactive) | > 10 | –
Cc1c(Cc2ccccc2)c(=O)oc2c(C)c(OCc3nn[nH]n3)ccc12 | > 10 µM (inactive) | > 10 | –
CC1CN(CCCCOc2ccc(C(C)C)cc2)CC(C)O1 (stereo not drawn) | – | > 10 | –
COc1cccc(NC(=O)c2ccc(CN3CCN(c4ccccc4)CC3)cc2)c1 | > 10 µM (inactive) | > 10 | –
O=[N+]([O-])c1ccc(N/N=C/c2c[nH]c3ccccc23)c(S(=O)(=O)Nc2ccc(Cl)cc2)c1 | 7.17 µM (inactive) | 2.5 | –

Structure (SMILES) | IC50 [1] | IC50 [2] [µM] | growth inhibition [2]
CCCC(=O)N1CCN(c2ccc(NC(=O)c3cc4ccccc4o3)cc2Cl)CC1 | 12.5 µM | 19.2 | –
COc1ccc(C(=O)Nc2ccc(Cl)cc2C(=O)N2CCCC(C)C2)cc1 (stereo not drawn) | 22.4 µM | > 10 | –
Cc1cc(N2C(=O)C3CCCN3C2c2sccc2C)no1 (stereo not drawn) | > 10 µM (inactive) | > 10 | –
C=CCc1ccccc1OCC(O)CN1CCN(Cc2ccc3c(c2)OCO3)CC1 (stereo not drawn) | 19.6 µM | > 10 | –
Cc1cc(C)c2c(c1)/C(=C/C(=O)c1ccc(Br)s1)C(=O)N2 | 1.55 µM (inactive) | 1.42 | –
OC(c1ccc(Cl)cc1Cl)C(Cc1cccnc1)n1cncn1 (stereo not drawn) | > 10 µM (inactive) | > 10 | –
N=c1c2c(-c3ccccc3)c(-c3ccccc3)n(Cc3ccco3)c2ncn1Cc1ccccc1 | 20.9 µM | – | –
COCCCNc1ccnc2c(Cl)cccc12 | > 10 µM (inactive) | > 10 | –
Fc1ccc(Cn2nnc(-c3ccc(CN4CCOCC4)cc3)n2)cc1 | > 10 µM (inactive) | > 10 | –
Clc1ccc(Cn2nnc(-c3ccc(CN4CCOCC4)cc3)n2)cc1 | 18.9 µM | > 10 | –
Cc1cccc(CS(=O)(=O)Cc2ccc(C(=O)NCCCN3CCCC3)o2)c1 | > 10 µM (inactive) | > 10 | –
COc1ccc(NC(=S)NC(NC(=O)c2ccc(Cl)cc2Cl)C(Cl)(Cl)Cl)c([N+](=O)[O-])c1 (stereo not drawn) | > 10 µM (inactive) | > 10 | –
Cc1ccc(NS(=O)(=O)c2cc(C(=O)N3CCOCC3)ccc2C)cc1 | > 10 µM (inactive) | > 10 | –
CS(=O)(=O)N1CCC(C(=O)NCCN2CCN(Cc3ccccc3)CC2)CC1 | > 10 µM (inactive) | > 10 | –
COc1ccc(OCCSc2nnc3sc4ccccc4n23)cc1 | > 10 µM (inactive) | – | –
Clc1ccc(-c2cnc(Oc3ccccc3)nc2)cc1 | > 10 µM (inactive) | > 10 | –
CCOC(=O)c1c(NC(=O)CN2CCCCC2)sc2c1CCC(C=O)=C2Cl | > 10 µM (inactive) | > 10 | –
CCOc1nc(SCCOc2ccccc2)nc(N(C)C)n1 | > 10 µM (inactive) | – | –
NC(=O)c1ccsc1NC(=O)c1nc(-c2ccccc2)n(-c2ccccc2)n1 | > 10 µM (inactive) | > 10 | –
CCOC(=O)COc1ccccc1C1Nc2ccccc2C(=O)N1c1cccc(Cl)c1 (stereo not drawn) | > 10 µM (inactive) | > 10 | –
CCOC(=O)c1cc2c(ccn2C)n1CC(=O)N1CCN(c2ccccc2OC)CC1 | > 10 µM (inactive) | > 10 | –
O=C(c1ccc(Cl)cc1Cl)N1CCC(c2nc3c(nnn3Cc3ccco3)c(=O)[nH]2)CC1 | > 10 µM (inactive) | > 10 | –

Structure (SMILES) | IC50 [1] | IC50 [2] [µM] | growth inhibition [2]
CCN(CC)CCCN(Cc1cc2cc3c(cc2[nH]c1=O)OCCO3)C(=O)Nc1ccc(F)cc1 | > 10 µM (inactive) | > 10 | –
COCCNC(=O)C(c1ccc(F)cc1)N(CC1CCCO1)C(=O)CCC(=O)Nc1ccccn1 (stereo not drawn) | > 10 µM (inactive) | > 10 | –
O=C1CC(N2CCN(c3ccc(Cl)c(Cl)c3)CC2)C(=O)N1 (stereo not drawn) | > 10 µM (inactive) | > 10 | –
CC(=O)Nc1ccccc1NS(=O)(=O)c1ccc(Cl)cc1 | > 10 µM (inactive) | > 10 | –
N#Cc1cn(-c2ccccc2)nc1-c1cc2ccccc2oc1=O | > 10 µM (inactive) | > 10 | –
CC12CCC(c3c(C(=O)Nc4nccs4)nn(-c4ccccc4)c31)C2(C)C (stereo not drawn) | > 10 µM (inactive) | – | –
COc1ccc(C2CC(=O)C3=C(C2)NC(C)=C(C(=O)Nc2ccccc2C)C3c2coc3ccc(C)cc3c2=O)cc1OC (stereo not drawn) | > 10 µM (inactive) | > 10 | –
O=[N+]([O-])c1cc(C(F)(F)F)ccc1N/N=C/c1cc2ccccc2nc1Cl | > 10 µM (inactive) | > 10 | –
COc1ccc(N2CCN(c3oc(-c4ccco4)nc3C#N)CC2)cc1 | > 10 µM (inactive) | > 10 | –
CC(=O)c1ccc(N2CCN(C(=O)c3ccc(Br)cc3)CC2)c(F)c1 | – | 6.58 | –
CC(c1nnc(SCn2nnc3ccccc3c2=O)n1-c1ccc(Cl)cc1)N(C)C (stereo not drawn) | > 10 µM (inactive) | – | –
O=C(OCn1ncc(Cl)c(Cl)c1=O)c1cccc(C(F)(F)F)c1 | – | 3.51 | –
CCCCCOc1ccc(CN2CCOCC2)cc1Cl | – | > 10 | –
N[C@@H](Cc1c[nH]c2ccccc12)c1nnc(SCc2ccc(Cl)cc2)o1 | – | 20.4 | –
CCOC(=O)c1ccc(NC(=O)c2cn(-c3ccccc3)nc2-c2ccncc2)cc1 | – | 11.5 | 18.6% (inactive)
O=C(N/N=C/c1ccc([N+](=O)[O-])o1)c1cc(-c2cccc(Br)c2)nc2ccccc12 | – | 4.65 | 42.1% (inactive)
Cc1cccc(-c2nnc(-c3cccc(NC(=O)Cc4cccs4)c3)o2)c1 | – | 15.2 | –
N#Cc1ccccc1Cn1cc(C(=O)c2cccs2)c2ccccc21 | > 10 µM (inactive) | – | –
CCCCC(=O)Nc1nc(C)c(-c2csc(Nc3ccc(Cl)cc3)n2)s1 | – | 6.26 | –
O=C(Nc1ccccc1)C1=C(O)CC(c2ccco2)CC1=Nc1ccccc1 (stereo not drawn) | – | > 10 | –
O=C(Nc1nnc(C2CC2)o1)c1ccc(S(=O)(=O)N2CCCc3ccccc32)cc1 | – | 3.17 | 30.1% (inactive)
O=C(OCn1ncc(Br)c(Br)c1=O)c1c(F)cccc1F | > 10 µM (inactive) | – | –

Structure (SMILES) | IC50 [1] | IC50 [2] [µM] | growth inhibition [2]
O=C(Nc1nnc(-c2ccccc2)o1)c1ccc(Cl)cc1 | – | 0.65 | 40.8% (inactive)
O=C(OCn1ncc(Br)c(Br)c1=O)c1ccccc1Cl | > 10 µM (inactive) | – | –
Cc1ccc(OCC(O)CN2CCN(Cc3ccc4c(c3)OCO4)CC2)c(C)c1 (stereo not drawn) | – | > 10 | –
Cc1[nH]nc(N=CC2=C(O)CC(C)(C)CC2=O)c1-c1ccc(Cl)cc1 | > 10 µM (inactive) | – | –
O=S1(=O)C=C(Sc2nc3ccccc3s2)c2ccccc21 | > 10 µM (inactive) | – | –
O=C(CC(=O)c1cc(Cl)ccc1O)c1ccccc1 | – | 12.7 | –
Cc1ccc(Cl)c(OCCCCN(C)Cc2ccccc2)c1 | – | > 10 | –
O=C(Nc1nnc(-c2ccc3c(c2)CCCC3)o1)c1ccccc1 | > 10 µM (inactive) | – | –
O=C(CN1CCN(c2ccccn2)CC1)Nc1ccc(Oc2ccccc2)cc1 | > 10 µM (inactive) | – | –
CC(C)c1ccc(C(=O)CSc2n[nH]c(-c3ccncc3)n2)cc1 | 17 µM | – | –
O=C1C=C(c2ccccc2)C(=O)N1Nc1ccccc1 | > 10 µM (inactive) | – | –
O=S1(=O)C=C(Sc2nnc(-c3ccccc3)o2)c2ccccc21 | > 10 µM (inactive) | – | –
O=[N+]([O-])c1cc(Cl)cc(/C=N\Nc2ccccn2)c1O | > 10 µM (inactive) | – | –
CC1CCN(S(=O)(=O)c2ccc(NC(=O)CCN3C(=O)c4ccccc4C3=O)cc2)CC1 | > 10 µM (inactive) | – | –
O=S(=O)(Cc1ccccc1Cl)N1CCN(Cc2ccc3c(c2)OCO3)CC1 | > 10 µM (inactive) | – | –
CCCCC(c1nnnn1Cc1ccco1)N1CCN(c2nc3ccccc3s2)CC1 (stereo not drawn) | – | 3.9 | –
C=CCc1ccc(OCCCCN2CC(C)OC(C)C2)c(OC)c1 (stereo not drawn) | – | > 10 | 34.1% (inactive)
CC(Sc1ccsc1[N+](=O)[O-])C(=O)NCCc1ccc(Cl)cc1 (stereo not drawn) | > 10 µM (inactive) | – | –
O=C(C1CCCN(S(=O)(=O)c2ccc(Cl)cc2)C1)N(Cc1cccs1)C1CC1 (stereo not drawn) | > 10 µM (inactive) | – | –
O=C(NCC(c1cccnc1)N1CCN(c2ccc(F)cc2)CC1)OCc1ccccc1 (stereo not drawn) | 23.4 µM | – | –
CCOc1ccc(NC(=O)N(C2CCCCC2)C(C)c2cccnc2)cc1 (stereo not drawn) | 21.5 µM | – | –
O=C1c2ccccc2C(=O)c2c1oc(C(F)(F)F)c2C(=O)c1ccccc1 | – | 2.2 | –
